Test results as given in the CheMixHub viscosity set.
Where “and” joins values, the source holds several entries; their conditions need not be identical. Identical values can stand only once.

Assay: xn = mol fraction of the nth substance listed

[Cl-].[K+] + O
Conditions | viscosity
293.15 K, 101 kPa, x1 = 0.005905 | 0.9971 mPa·s and 0.9972 mPa·s
293.15 K, 101 kPa, x1 = 0.009253 | 0.9943 mPa·s
293.15 K, 101 kPa, x1 = 0.01811 | 0.9892 mPa·s and 0.989 mPa·s
293.15 K, 101 kPa, x1 = 0.02711 | 0.9882 mPa·s and 0.9881 mPa·s
293.15 K, 101 kPa, x1 = 0.03656 | 0.9913 mPa·s
293.15 K, 101 kPa, x1 = 0.0468 | 0.9995 mPa·s and 0.9994 mPa·s
293.15 K, 101 kPa, x1 = 0.07583 | 1.047 mPa·s
297.65 K, 100 kPa, x1 = 0.02628 | 0.905 mPa·s and 0.904 mPa·s
298.15 K, 100 kPa, x1 = 0.05933 | 0.932 mPa·s and 0.933 mPa·s
298.15 K, 101 kPa, x1 = 0.005905 | 0.8895 mPa·s
298.15 K, 101 kPa, x1 = 0.009253 | 0.8885 mPa·s and 0.8886 mPa·s
298.15 K, 101 kPa, x1 = 0.01811 | 0.8883 mPa·s and 0.8882 mPa·s
298.15 K, 101 kPa, x1 = 0.02711 | 0.8911 mPa·s and 0.891 mPa·s
298.15 K, 101 kPa, x1 = 0.0468 | 0.908 mPa·s and 0.9079 mPa·s
298.15 K, 101 kPa, x1 = 0.05806 | 0.9238 mPa·s
298.15 K, 101 kPa, x1 = 0.06612 | 0.9378 mPa·s and 0.9377 mPa·s
298.15 K, 101 kPa, x1 = 0.07583 | 0.9577 mPa·s and 0.9576 mPa·s
298.15 K, 101.3 kPa, x1 = 0.00072 | 0.8908 mPa·s
298.15 K, 101.3 kPa, x1 = 0.00162 | 0.8906 mPa·s
298.15 K, 101.3 kPa, x1 = 0.002874 | 0.8911 mPa·s
298.15 K, 101.3 kPa, x1 = 0.004484 | 0.8895 mPa·s
298.15 K, 101.3 kPa, x1 = 0.007154 | 0.8891 mPa·s
298.15 K, 101.3 kPa, x1 = 0.01245 | 0.8885 mPa·s
298.15 K, 101.3 kPa, x1 = 0.0177 | 0.8882 mPa·s
299.15 K, 100 kPa, x1 = 0.07333 | 0.95 mPa·s and 0.949 mPa·s
299.65 K, 100 kPa, x1 = 0.04316 | 0.888 mPa·s
300.15 K, 100 kPa, x1 = 0.008975 | 0.86 mPa·s and 0.858 mPa·s
303.15 K, 101 kPa, x1 = 0.005905 | 0.7997 mPa·s
303.15 K, 101 kPa, x1 = 0.009253 | 0.8005 mPa·s and 0.8003 mPa·s
303.15 K, 101 kPa, x1 = 0.01811 | 0.8034 mPa·s and 0.8032 mPa·s
303.15 K, 101 kPa, x1 = 0.03656 | 0.8174 mPa·s
303.15 K, 101 kPa, x1 = 0.0468 | 0.8296 mPa·s and 0.8294 mPa·s
303.15 K, 101 kPa, x1 = 0.05806 | 0.8467 mPa·s and 0.8466 mPa·s
303.15 K, 101 kPa, x1 = 0.06612 | 0.8611 mPa·s and 0.8612 mPa·s
303.15 K, 101 kPa, x1 = 0.07583 | 0.8802 mPa·s and 0.8799 mPa·s
307.15 K, 100 kPa, x1 = 0.05933 | 0.798 mPa·s and 0.799 mPa·s
308.15 K, 100 kPa, x1 = 0.05933 | 0.793 mPa·s and 0.794 mPa·s
308.15 K, 101.3 kPa, x1 = 0.00072 | 0.7204 mPa·s
308.15 K, 101.3 kPa, x1 = 0.00162 | 0.721 mPa·s
308.15 K, 101.3 kPa, x1 = 0.007154 | 0.7241 mPa·s
308.15 K, 101.3 kPa, x1 = 0.01245 | 0.7273 mPa·s
308.15 K, 101.3 kPa, x1 = 0.0177 | 0.7305 mPa·s
308.65 K, 100 kPa, x1 = 0.02628 | 0.738 mPa·s and 0.737 mPa·s
308.65 K, 100 kPa, x1 = 0.04316 | 0.761 mPa·s and 0.759 mPa·s
309.15 K, 100 kPa, x1 = 0.008975 | 0.717 mPa·s
309.15 K, 100 kPa, x1 = 0.07333 | 0.805 mPa·s
313.15 K, 101 kPa, x1 = 0.005905 | 0.6585 mPa·s
313.15 K, 101 kPa, x1 = 0.009253 | 0.661 mPa·s
313.15 K, 101 kPa, x1 = 0.01811 | 0.6685 mPa·s and 0.6683 mPa·s
313.15 K, 101 kPa, x1 = 0.02711 | 0.6774 mPa·s
313.15 K, 101 kPa, x1 = 0.03656 | 0.6885 mPa·s
313.15 K, 101 kPa, x1 = 0.0468 | 0.7028 mPa·s
313.15 K, 101 kPa, x1 = 0.05806 | 0.7211 mPa·s
313.15 K, 101 kPa, x1 = 0.06612 | 0.7359 mPa·s
313.15 K, 101 kPa, x1 = 0.07583 | 0.7551 mPa·s
316.15 K, 100 kPa, x1 = 0.008975 | 0.629 mPa·s and 0.63 mPa·s
317.65 K, 100 kPa, x1 = 0.02628 | 0.631 mPa·s
317.65 K, 100 kPa, x1 = 0.05933 | 0.686 mPa·s
318.15 K, 100 kPa, x1 = 0.07333 | 0.705 mPa·s and 0.706 mPa·s
318.15 K, 101.3 kPa, x1 = 0.00072 | 0.5972 mPa·s
318.15 K, 101.3 kPa, x1 = 0.00162 | 0.5983 mPa·s
318.15 K, 101.3 kPa, x1 = 0.002874 | 0.6 mPa·s
318.15 K, 101.3 kPa, x1 = 0.004484 | 0.601 mPa·s
318.15 K, 101.3 kPa, x1 = 0.007154 | 0.6037 mPa·s
319.15 K, 100 kPa, x1 = 0.04316 | 0.643 mPa·s and 0.64 mPa·s
323.15 K, 101 kPa, x1 = 0.005905 | 0.554 mPa·s
323.15 K, 101 kPa, x1 = 0.01811 | 0.5673 mPa·s
323.15 K, 101 kPa, x1 = 0.02711 | 0.5782 mPa·s
323.15 K, 101 kPa, x1 = 0.0468 | 0.6058 mPa·s
323.15 K, 101 kPa, x1 = 0.05806 | 0.6242 mPa·s
323.15 K, 101 kPa, x1 = 0.06612 | 0.6389 mPa·s
323.15 K, 101 kPa, x1 = 0.07583 | 0.6575 mPa·s

CCCC#N + CCCCO
viscosity [mPa·s], 101.33 kPa
Conditions | x2 = 0.1001 | x2 = 0.1981 | x2 = 0.2994 | x2 = 0.3979 | x2 = 0.4953 | x2 = 0.5961 | x2 = 0.6981 | x2 = 0.7984 | x2 = 0.8991
298.15 K | 0.58 | 0.623 | 0.684 | 0.764 | 0.869 | 1.012 | 1.211 | 1.482 | 1.885
308.15 K | 0.515 | 0.547 | 0.596 | 0.66 | 0.741 | 0.852 | 1.003 | 1.208 | 1.506
318.15 K | 0.461 | 0.487 | 0.526 | 0.575 | 0.64 | 0.726 | 0.842 | 1.002 | 1.221

COc1ccccc1O + C1COCCO1
308.15 K, 101 kPa
Conditions | viscosity [mPa·s]
x2 = 0.1 | 4.29
x2 = 0.2 | 4.18
x2 = 0.3 | 3.795
x2 = 0.4 | 3.347
x2 = 0.5 | 2.73
x2 = 0.6 | 2.231
x2 = 0.7 | 1.834
x2 = 0.8 | 1.453
x2 = 0.9 | 1.172

Brc1ccccc1 + C1COCCO1
303.15 K, 101 kPa
Conditions | viscosity [mPa·s]
x1 = 0.083 | 1.075
x1 = 0.17 | 1.078
x1 = 0.259 | 1.122
x1 = 0.352 | 1.131
x1 = 0.449 | 1.125
x1 = 0.55 | 1.115
x1 = 0.655 | 1.108
x1 = 0.766 | 1.079
x1 = 0.88 | 1.034

C1COCCO1 + CCCCCCC
viscosity [mPa·s], 101 kPa
Conditions | x1 = 0.1112 | x1 = 0.225 | x1 = 0.3223 | x1 = 0.4312 | x1 = 0.5017 | x1 = 0.6114 | x1 = 0.7213 | x1 = 0.8211 | x1 = 0.9112
308.15 K | 0.363 | 0.396 | 0.422 | 0.471 | 0.505 | 0.572 | 0.658 | 0.76 | 0.875
313.15 K | 0.354 | 0.381 | 0.409 | 0.446 | 0.475 | 0.535 | 0.618 | 0.713 | 0.814
318.15 K | 0.336 | 0.362 | 0.387 | 0.421 | 0.449 | 0.504 | 0.579 | 0.666 | 0.764

OCC(F)(F)F + O=C1CCCN1
viscosity [mPa·s], 101 kPa
Conditions | x1 = 0.3 | x1 = 0.4 | x1 = 0.5 | x1 = 0.6 | x1 = 0.7 | x1 = 0.8 | x1 = 0.9
293.15 K | 9.082 | 6.392 | 4.918 | 3.907 | 3.208 | 2.768 | 2.477
303.15 K | 6.16 | 4.724 | 3.801 | 3.071 | 2.519 | 2.146 | 1.882
313.15 K | 4.448 | 3.625 | 3.008 | 2.458 | 2.015 | 1.705 | 1.478
323.15 K | 3.389 | 2.875 | 2.431 | 1.999 | 1.64 | 1.384 | 1.194

COc1ccccc1O + CN(C)c1ccccc1
303.15 K, 101 kPa
Conditions | viscosity [mPa·s]
x2 = 0.1 | 3.71
x2 = 0.2 | 3.21
x2 = 0.3 | 2.84
x2 = 0.4 | 2.46
x2 = 0.5 | 2.16
x2 = 0.6 | 1.89
x2 = 0.7 | 1.65
x2 = 0.8 | 1.46
x2 = 0.9 | 1.31

CC(C)N + CCC(C)=O
298.15 K, 101 kPa
Conditions | viscosity [mPa·s]
x2 = 0.0835 | 0.288
x2 = 0.1701 | 0.3
x2 = 0.26 | 0.314
x2 = 0.3534 | 0.33
x2 = 0.4505 | 0.345
x2 = 0.5515 | 0.358
x2 = 0.6567 | 0.37
x2 = 0.7663 | 0.371
x2 = 0.8806 | 0.372
